Results published in PMC3956608 (PLoS ONE, 2014).

Experiments:
[1] = target: T1, acetylcholine binding protein (Ls-AChBP) (Lymnaea stagnalis, UniProt P58154); assay: radioligand binding, HEK-293 cell homogenate; set-up: Ls-AChBP linked to a 5HT3 receptor ion channel (Ls-AChBP-5HT3 receptor chimera); details: cited from earlier work
[2] = target: T1, acetylcholine binding protein (Ls-AChBP); assay: biochemical

T1 sequence (P58154 20-229): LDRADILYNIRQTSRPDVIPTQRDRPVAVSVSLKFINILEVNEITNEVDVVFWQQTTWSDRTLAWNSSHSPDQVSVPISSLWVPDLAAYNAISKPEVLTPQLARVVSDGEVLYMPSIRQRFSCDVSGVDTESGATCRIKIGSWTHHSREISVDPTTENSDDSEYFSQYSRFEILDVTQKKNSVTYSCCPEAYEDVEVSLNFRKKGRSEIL

SMILES	Kd [1] [nM]	Ki [2] [nM]
Clc1ccc(C2CC3CCC2N3)cn1 (centres unmarked) [[3H]-epibatidine]	0.097	
CC(=O)OCC[N+](C)(C)C [acetylcholine]		1500
